Assay results published in patent US20260241048A1, “PSMA-TARGETED RADIOPHARMACEUTICALS AND DNA DAMAGE RESPONSE INHIBITOR COMBINATION THERAPY” (FUSION PHARMACEUTICALS INC., priority 2023, published 2026).

Key:
PC3-PSMA xenograft [1] = assay: In vivo combination study of ^225Ac-Compound I and olaparib in PC3-PSMA tumor xenograft bearing mouse model
Experimental: An in vivo combination study was conducted with ^225Ac-Compound I and olaparib using a PSMA overexpressing PC3 (PC3-PSMA, prostate cancer) tumor xenograft bearing mouse model. Groups of mice (n=5/group) were treated with ^225Ac-Compound I administered as a single dose (intravenous), at a dose sub-optimal for monotherapeutic efficacy (1.23 MBq/kg or 1 μCi, based on 30 g mice). Additional groups of mice (n=5/group) were dosed daily with olaparib (oral gavage) using a dose range of 25, 50, or 100 mg/kg for 28 consecutive days in combination with ^225Ac-Compound I. Olaparib dosing started on the same day that ^225Ac-Compound I was dosed (FIG. 1). Olaparib monotherapy and vehicle control groups (n=5/group) were included as controls. Tumor measurements were taken 2-3 times per week and used to calculate tumor volume. Study duration was for 50 days after initial therapeutic administration.
Tumor growth in study animals was tracked over time and expressed as Relative Tumor Volume (RTV; tumor volume on day X divided by initial tumor volume on day 0) (FIGS. 2A-2C). Single agent olaparib monotherapy was found ineffective at all dose levels tested.

PC3-PSMA xenograft [2] = assay: In vivo combination study of ^225Ac-Compound I and elimusertib in PC3-PSMA tumor xenograft bearing mouse model; settings: 1.23 MBq/kg [^225Ac]-Compound I single i.v. dose combined with elimusertib 5, 20 and 40 mg/kg; compared to either monotherapy or vehicle
Experimental: Groups of mice (n=5/group) were treated with ^225Ac-Compound I, administered as a single dose (intravenous), at a dose sub-optimal for monotherapeutic efficacy (1.23 MBq/kg or 1 μCi, based on 30 g mice). […] Tumor measurements were taken 2-3 times per week and used to calculate tumor volume. Study duration was 61 days after initial therapeutic administration.
Tumor growth was tracked over time and expressed as Relative Tumor Volume (RTV; tumor volume on day X divided by initial tumor volume on day 0) (FIGS. 4A-4C).

SMILES	Tumor growth inhibition (Relative Tumor Volume) (PC3-PSMA xenograft [1]; 1.23 MBq/kg [^225Ac]-Compound I single i.v. dose combined with olaparib 25, 50 or 100 mg/kg daily, compared to either monotherapy or vehicle)	Tumor growth inhibition (Relative Tumor Volume) (PC3-PSMA xenograft [2])	Tumor growth (Relative Tumor Volume) (PC3-PSMA xenograft [1]; single agent olaparib monotherapy, oral gavage daily for 28 days, all dose levels tested (25, 50, 100 mg/kg))
O=C(O)CC[C@H](NC(=O)N[C@@H](CCCCNC(=O)CCCCCCC(=O)NCCCC[C@@H](NC(=O)[C@@H](Cc1ccccc1)NC(=O)[C@@H](Cc1ccc(O)c(I)c1)NC(=O)CCC(C(=O)O)N1CCN(CC(=O)O)CCN(CC(=O)O)CCN(CC(=O)O)CC1)C(=O)O)C(=O)O)C(=O)O (stereo partly drawn) [[^225Ac]-Compound I, metal not drawn]	enhanced tumor growth inhibition	enhanced tumor growth inhibition	–
O=C(c1cc(Cc2n[nH]c(=O)c3ccccc23)ccc1F)N1CCN(C(=O)C2CC2)CC1 [olaparib, reference compound]	–	–	ineffective
